IC50 data for 26 compounds are collected here from patent US12679843B2, “Pyrrolopyrimidine amines as complement inhibitors” (BioCryst Pharmaceuticals, Inc., priority 2020, dated 2026).

As a reminder, the IC50 is the concentration needed to halve the response being measured.

Sequence of Factor D (P00746 26-253): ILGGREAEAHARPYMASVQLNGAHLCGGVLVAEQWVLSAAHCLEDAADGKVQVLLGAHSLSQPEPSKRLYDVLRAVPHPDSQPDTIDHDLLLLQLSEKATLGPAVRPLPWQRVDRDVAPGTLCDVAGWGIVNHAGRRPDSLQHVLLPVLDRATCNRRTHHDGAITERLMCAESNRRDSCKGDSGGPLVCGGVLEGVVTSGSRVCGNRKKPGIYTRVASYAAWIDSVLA

This assay concerns the target Factor D (Homo sapiens, UniProt P00746). Briefly: Factor D esterolytic assay (Z-Lys-SBzl thioester substrate, DTNB, 405 nm). The assay is classed as biochemical. To be noted: substrate Z-Lys-SBzl 1.29 mM, 100 mM HEPES, 500 mM NaCl, pH 7.5, 10% DMSO, tested a minimum of three times. The essentials: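 Human Factor D hydrolysis of Z-Lys-SBzl (1.29 mM) monitored at 405 nm via DTNB thiol detection for 600 s, 690 nm background subtracted. Buffer 100 mM HEPES, 500 mM NaCl, pH 7.5, 10% DMSO; substrate added immediately or after room-temperature preincubation. IC50 from percent inhibition of rate, at least three tests.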
For the compound `C[C@@H]1C[C@@H](C(=O)Nc2cccc(Br)n2)N(C(=O)Cn2c3ccc(C(F)(F)F)cc3c3c(N)ncnc32)C1` [Compound 206c, (2S,4R)-1-(2-(4-amino-6-(trifluoromethyl)-9H-pyrimido[4,5-b]indol-9-yl)acetyl)-N-(6-bromopyridin-2-yl)-4-methylpyrrolidine-2-carboxamide], the half-inhibitory concentration (IC50) was 100 to 1000 nM.

Take `Nc1ncnc2c1nc(Br)n2CC(=O)N1C[C@H](F)C[C@H]1C(=O)NCc1cccc(Cl)c1F` [Compound 110d, (2S,4R)-1-(2-(6-amino-8-bromo-9H-purin-9-yl)acetyl)-N-(3-chloro-2-fluorobenzyl)-4-fluoropyrrolidine-2-carboxamide]: the IC50 is greater than 1000 nM.

For `Nc1ncnc2c1c(-c1ccoc1)cn2CC(=O)N1C[C@H](F)C[C@H]1C(=O)NCc1cccc(Cl)c1F` [Compound 143d, (2S,4R)-1-(2-(4-amino-5-(furan-3-yl)-7H-pyrrolo[2,3-d]pyrimidin-7-yl)acetyl)-N-(3-chloro-2-fluorobenzyl)-4-fluoropyrrolidine-2-carboxamide], the IC50 is 100 to 1000 nM.

For the compound `Cc1cc2c(cc1Br)c1c(N)ncnc1n2CC(=O)N1[C@H](C(=O)Nc2cccc(Br)n2)C[C@@]2(C)C[C@@H]12` [Compound 380a, (1R,3S,5R)-2-(2-(4-amino-6-bromo-7-methyl-9H-pyrimido[4,5-b]indol-9-yl)acetyl)-N-(6-bromopyridin-2-yl)-5-methyl-2-azabicyclo[3.1.0]hexane-3-carboxamide], the 50% inhibitory concentration (IC50) was less than 100 nM.

Consider `Nc1ncnc2c1ncn2CC(=O)N1[C@@H]2C[C@@H]2C[C@H]1C(=O)NCc1cccc(Cl)c1F` [Compound 91a, (1R,3S,5R)-2-(2-(6-amino-9H-purin-9-yl)acetyl)-N-(3-chloro-2-fluorobenzyl)-2-azabicyclo[3.1.0]hexane-3-carboxamide], for which the IC50 was less than 100 nM.

As to `Nc1ncnc2c1ncn2CC(=O)N1C[C@H](F)C[C@H]1C(=O)NCc1cccc(Cl)c1F` [Compound 104a, (2S,4R)-1-(2-(6-amino-9H-purin-9-yl)acetyl)-N-(3-chloro-2-fluorobenzyl)-4-fluoropyrrolidine-2-carboxamide], the half-inhibitory concentration (IC50) is less than 100 nM.

Consider `Nc1ncc2ncn(CC(=O)N3[C@@H]4C[C@@H]4C[C@H]3C(=O)Nc3cccc(Br)n3)c2n1` [Compound 89b, (1R,3S,5R)-2-(2-(2-amino-9H-purin-9-yl)acetyl)-N-(6-bromopyridin-2-yl)-2-azabicyclo[3.1.0]hexane-3-carboxamide], for which the concentration for half-maximal inhibition (IC50) was 100 to 1000 nM.

Regarding `Nc1ncnc2c1c1cc(C(F)(F)F)ccc1n2CC(=O)N1C[C@H](F)C[C@H]1C(=O)Nc1cccc(Br)n1` [Compound 26a, (2S,4R)-1-(2-(4-amino-6-(trifluoromethyl)-9H-pyrimido[4,5-b]indol-9-yl)acetyl)-N-(6-bromopyridin-2-yl)-4-fluoropyrrolidine-2-carboxamide], the IC50 is less than 100 nM.

For the compound `COc1cc([N+](=O)[O-])cc2c3c(N)ncnc3n(CC(=O)N3[C@H](C(=O)Nc4cccc(Br)n4)C[C@@]4(C)C[C@@H]34)c12` [Compound 243a, (1R,3S,5R)-2-(2-(4-amino-8-methoxy-6-nitro-9H-pyrimido[4,5-b]indol-9-yl)acetyl)-N-(6-bromopyridin-2-yl)-5-methyl-2-azabicyclo[3.1.0]hexane-3-carboxamide], the half-maximal inhibitory concentration (IC50) was less than 100 nM.

For `Nc1ncnc2c1ccn2CC(=O)N1C[C@H](F)C[C@H]1C(=O)Nc1cccc(Br)n1` [Compound 5e, (2S,4R)-1-(2-(4-amino-7H-pyrrolo[2,3-d]pyrimidin-7-yl)acetyl)-N-(6-bromopyridin-2-yl)-4-fluoropyrrolidine-2-carboxamide], the 50% inhibitory concentration (IC50) lay in the range of 100 to 1000 nM.

On to `Nc1ncnc2c1c(-c1cc3ccccc3[nH]1)cn2CC(=O)N1C[C@H](F)C[C@H]1C(=O)NCc1cccc(Cl)c1F` [Compound 133b, (2S,4R)-1-(2-(4-amino-5-(1H-indol-2-yl)-7H-pyrrolo[2,3-d]pyrimidin-7-yl)acetyl)-N-(3-chloro-2-fluorobenzyl)-4-fluoropyrrolidine-2-carboxamide], for which the IC50 was less than 100 nM.

On to `COc1cc2c(cc1C(F)(F)F)c1c(N)ncnc1n2CC(=O)N1[C@@H]2C[C@@H]2C[C@H]1C(=O)Nc1cccc(Br)n1` [Compound 367g, (1R,3S,5R)-2-(2-(4-amino-7-methoxy-6-(trifluoromethyl)-9H-pyrimido[4,5-b]indol-9-yl)acetyl)-N-(6-bromopyridin-2-yl)-2-azabicyclo[3.1.0]hexane-3-carboxamide], for which the IC50 was less than 100 nM.

Take `Nc1ncnc2c1c1ccccc1n2CC(=O)N1C[C@H](F)C[C@H]1C(=O)Nc1cccc(Br)n1` [Compound 19a, (2S,4R)-1-(2-(4-amino-9H-pyrimido[4,5-b]indol-9-yl)acetyl)-N-(6-bromopyridin-2-yl)-4-fluoropyrrolidine-2-carboxamide]: the IC50 was less than 100 nM.

On to `Nc1ncnc2c1c1cccc(-c3ccccc3)c1n2CC(=O)N1[C@@H]2C[C@@H]2C[C@H]1C(=O)Nc1cccc(Br)n1` [Compound 244d, (1R,3S,5R)-2-(2-(4-amino-8-phenyl-9H-pyrimido[4,5-b]indol-9-yl)acetyl)-N-(6-bromopyridin-2-yl)-2-azabicyclo[3.1.0]hexane-3-carboxamide], for which the IC50 is less than 100 nM.

With `COc1cc(C)c2c(c1)c1c(N)ncnc1n2CC(=O)N1[C@H](C(=O)Nc2cccc(Br)n2)C[C@@]2(C)C[C@@H]12` [Compound 258a, (1R,3S,5R)-2-(2-(4-amino-6-methoxy-8-methyl-9H-pyrimido[4,5-b]indol-9-yl)acetyl)-N-(6-bromopyridin-2-yl)-5-methyl-2-azabicyclo[3.1.0]hexane-3-carboxamide], the IC50 was less than 100 nM.

As to `Cc1cccc2c1c1c(N)ncnc1n2CC(=O)N1[C@@H]2C[C@@H]2C[C@H]1C(=O)Nc1cccc(Br)n1` [Compound 56g, (1R,3S,5R)-2-(2-(4-amino-5-methyl-9H-pyrimido[4,5-b]indol-9-yl)acetyl)-N-(6-bromopyridin-2-yl)-2-azabicyclo[3.1.0]hexane-3-carboxamide], the half-inhibitory concentration (IC50) is 100 to 1000 nM.

With `COc1cccc2c1c1c(N)ncnc1n2CC(=O)N1[C@H](C(=O)Nc2nc(Br)ccc2C)C[C@@]2(C)C[C@@H]12` [Compound 249a, (1R,3S,5R)-2-(2-(4-amino-5-methoxy-9H-pyrimido[4,5-b]indol-9-yl)acetyl)-N-(6-bromo-3-methylpyridin-2-yl)-5-methyl-2-azabicyclo[3.1.0]hexane-3-carboxamide], the IC50 was less than 100 nM.

Take `Nc1ncnc2c1c1cccnc1n2CC(=O)N1[C@@H]2C[C@@H]2C[C@H]1C(=O)Nc1cccc(Br)n1` [Compound 162g, (1R,3S,5R)-2-(2-(4-amino-9H-pyrido[3′,2′:4,5]pyrrolo[2,3-d]pyrimidin-9-yl)acetyl)-N-(6-bromopyridin-2-yl)-2-azabicyclo[3.1.0]hexane-3-carboxamide]: the IC50 is less than 100 nM.

Consider `Cc1cc(C(F)(F)F)cc2c3c(N)ncnc3n(CC(=O)N3C[C@H](F)C[C@H]3C(=O)Nc3cncc(Br)n3)c12` [Compound 321d, (2S,4R)-1-(2-(4-amino-8-methyl-6-(trifluoromethyl)-9H-pyrimido[4,5-b]indol-9-yl)acetyl)-N-(6-bromopyrazin-2-yl)-4-fluoropyrrolidine-2-carboxamide], for which the concentration for half-maximal inhibition (IC50) was less than 100 nM.

On to `Cc1ccc2c(c1)c1c(N)ncnc1n2CC(=O)N1[C@@H]2C[C@@H]2C[C@H]1C(=O)Nc1cccc(Br)n1` [Compound 6e, (1R,3S,5R)-2-(2-(4-amino-6-methyl-9H-pyrimido[4,5-b]indol-9-yl)acetyl)-N-(6-bromopyridin-2-yl)-2-azabicyclo[3.1.0]hexane-3-carboxamide], for which the IC50 is less than 100 nM.

On to `Cc1cc(C(F)(F)F)cc2c3c(N)ncnc3n(CC(=O)N3CCS[C@H]3C(=O)Nc3cccc(Br)n3)c12` [Compound 324a, (S)-3-(2-(4-amino-8-methyl-6-(trifluoromethyl)-9H-pyrimido[4,5-b]indol-9-yl)acetyl)-N-(6-bromopyridin-2-yl)thiazolidine-2-carboxamide], for which the half-inhibitory concentration (IC50) is less than 100 nM.

Regarding `CC(C)(C)OC(=O)Nc1ccc2c3c(N)ncnc3n(CC(=O)N3[C@@H]4C[C@@H]4C[C@H]3C(=O)Nc3cccc(Br)n3)c2c1` [Compound 17f, tert-butyl (4-amino-9-(2-((1R,3S,5R)-3-((6-bromopyridin-2-yl)carbamoyl)-2-azabicyclo[3.1.0]hexan-2-yl)-2-oxoethyl)-9H-pyrimido[4,5-b]indol-7-yl)carbamate], the IC50 is less than 100 nM.

In the case of `C[C@@]12C[C@@H](C(=O)Nc3cncc(Br)n3)N(C(=O)Cn3c4ccc(C(F)(F)F)cc4c4c(N)ncnc43)[C@@H]1C2` [Compound 261d, (1R,3S,5R)-2-(2-(4-amino-6-(trifluoromethyl)-9H-pyrimido[4,5-b]indol-9-yl)acetyl)-N-(6-bromopyrazin-2-yl)-5-methyl-2-azabicyclo[3.1.0]hexane-3-carboxamide], the IC50 is less than 100 nM.

For the compound `Nc1ncnc2c1c1cc(C(F)(F)F)ccc1n2CC(=O)N1[C@@H]2C[C@@H]2C[C@H]1C(=O)Nc1ccnc(Br)c1` [Compound 259d, (1R,3S,5R)-2-(2-(4-amino-6-(trifluoromethyl)-9H-pyrimido[4,5-b]indol-9-yl)acetyl)-N-(2-bromopyridin-4-yl)-2-azabicyclo[3.1.0]hexane-3-carboxamide], the half-maximal inhibitory concentration (IC50) fell in the range of 100 to 1000 nM.

As for `Nc1ncnc2c1c1cc(Cl)ccc1n2CC(=O)N1[C@@H]2C[C@@H]2C[C@H]1C(=O)Nc1cccc(Br)n1` [Compound 236f, (1R,3S,5R)-2-(2-(4-amino-6-chloro-9H-pyrimido[4,5-b]indol-9-yl)acetyl)-N-(6-bromopyridin-2-yl)-2-azabicyclo[3.1.0]hexane-3-carboxamide], the half-maximal inhibitory concentration (IC50) was less than 100 nM.

On to `C[C@@]12C[C@@H](C(=O)Nc3cccc(Br)n3)N(C(=O)Cn3c4cc(Br)ccc4c4c(N)ncnc43)[C@@H]1C2` [Compound 200a, (1R,3S,5R)-2-(2-(4-amino-7-bromo-9H-pyrimido[4,5-b]indol-9-yl)acetyl)-N-(6-bromopyridin-2-yl)-5-methyl-2-azabicyclo[3.1.0]hexane-3-carboxamide], for which the half-maximal inhibitory concentration (IC50) was less than 100 nM.
